Each structure is given as a SMILES string. A value given as a limit tells only on which side of the number the result lay.

This passage reports inhibition, IC50 and MIC results from patent publication US20230321123A1, “INHIBITORS OF PSEUDOMONAS AERUGINOSA VIRULENCE FACTOR LasB” (Helmholtz-Zentrum Für Infektionsforschung GmbH, priority 2020, published 2023).

The target of series [1] is T1, MMP-1 (Homo sapiens, UniProt P03956).
T1 sequence (P03956 100-469): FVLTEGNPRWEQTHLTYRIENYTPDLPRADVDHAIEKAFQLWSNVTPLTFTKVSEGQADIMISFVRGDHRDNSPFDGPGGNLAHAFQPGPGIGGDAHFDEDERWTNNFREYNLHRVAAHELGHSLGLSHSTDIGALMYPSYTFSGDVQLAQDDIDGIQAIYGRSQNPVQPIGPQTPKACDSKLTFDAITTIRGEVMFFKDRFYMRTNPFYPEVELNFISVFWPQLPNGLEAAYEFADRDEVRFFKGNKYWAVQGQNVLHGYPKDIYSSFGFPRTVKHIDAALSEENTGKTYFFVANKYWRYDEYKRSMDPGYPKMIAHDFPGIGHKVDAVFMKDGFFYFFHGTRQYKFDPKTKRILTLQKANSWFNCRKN
Briefly: Selectivity against human off-targets: MMP-1. It counts as biochemical. The following applies: at 100 μM; read-out: Inhibition [%] MMP-1. An excerpt: (§1) The inhibition of zinc-containing human enzymes is described frequently for LasB inhibitors and poses a serious difficulty in the development of selective compounds. Particularly, the inhibition of matrix metalloproteases (MMPs) should be avoided. To further investigate this issue, three derivatives (the compounds of examples 1, 5 and 8) have been tested for their selectivity against several human off-targets, including six MMPs, ADAM17 (TACE), HDAC-3 and HDAC-8 (Table 4). The selectivity of the compounds is particularly high for MMPs and HDACs, whereas the inhibition of ADAM17 was considerably stronger.

The target in series [2] is T2, MMP-2 (Homo sapiens, UniProt P08253).
T2 sequence (P08253 110-660): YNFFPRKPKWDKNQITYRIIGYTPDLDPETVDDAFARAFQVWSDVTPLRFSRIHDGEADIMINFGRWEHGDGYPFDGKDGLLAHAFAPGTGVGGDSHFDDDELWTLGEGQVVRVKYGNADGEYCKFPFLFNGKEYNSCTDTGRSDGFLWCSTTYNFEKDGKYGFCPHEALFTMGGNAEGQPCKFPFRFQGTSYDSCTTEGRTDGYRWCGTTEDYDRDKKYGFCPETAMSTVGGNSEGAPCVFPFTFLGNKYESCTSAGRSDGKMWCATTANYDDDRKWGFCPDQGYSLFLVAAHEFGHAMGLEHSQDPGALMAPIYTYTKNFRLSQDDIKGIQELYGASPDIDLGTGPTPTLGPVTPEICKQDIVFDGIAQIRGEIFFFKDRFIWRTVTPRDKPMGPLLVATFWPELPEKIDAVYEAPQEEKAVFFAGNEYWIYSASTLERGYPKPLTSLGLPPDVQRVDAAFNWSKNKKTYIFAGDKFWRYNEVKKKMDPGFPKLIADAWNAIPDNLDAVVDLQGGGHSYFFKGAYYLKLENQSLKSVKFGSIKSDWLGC
Briefly: Selectivity against human off-targets: MMP-2. It counts as biochemical. The conditions noted are these: at 100 μM; read-out: Inhibition [%] MMP-2.
Excerpt: as §1

Series [3] in a line: Cytotoxicity HepG2. The series is classed as cell-based. The following applies: human. The protocol:
(§2) The compounds of examples 1 and 5 were not toxic against the cell lines HepG2, HEK293 and A549 (Table 5). Additionally, the inhibitory effect against P. aeruginosa PA14 was evaluated to exclude an antibacterial effect of the compounds of the present invention. This is important as it was the aim to target virulence and not viability of the bacteria. […]

Series [4] addresses HDAC-3 (Homo sapiens, UniProt O15379). Briefly: Selectivity against human off-targets: HDAC-3. It counts as biochemical. The conditions noted are these: read-out: IC50 HDAC-3.
Excerpt: as §1

In series [5] the target is ADAM17 (TACE) (Homo sapiens, UniProt P78536). Briefly: Selectivity against human off-targets: ADAM17 (TACE). It counts as biochemical. The conditions noted are these: for IC50: read-out: IC50 ADAM17 (TACE).
Sequence of ADAM17 (TACE) (P78536 215-824): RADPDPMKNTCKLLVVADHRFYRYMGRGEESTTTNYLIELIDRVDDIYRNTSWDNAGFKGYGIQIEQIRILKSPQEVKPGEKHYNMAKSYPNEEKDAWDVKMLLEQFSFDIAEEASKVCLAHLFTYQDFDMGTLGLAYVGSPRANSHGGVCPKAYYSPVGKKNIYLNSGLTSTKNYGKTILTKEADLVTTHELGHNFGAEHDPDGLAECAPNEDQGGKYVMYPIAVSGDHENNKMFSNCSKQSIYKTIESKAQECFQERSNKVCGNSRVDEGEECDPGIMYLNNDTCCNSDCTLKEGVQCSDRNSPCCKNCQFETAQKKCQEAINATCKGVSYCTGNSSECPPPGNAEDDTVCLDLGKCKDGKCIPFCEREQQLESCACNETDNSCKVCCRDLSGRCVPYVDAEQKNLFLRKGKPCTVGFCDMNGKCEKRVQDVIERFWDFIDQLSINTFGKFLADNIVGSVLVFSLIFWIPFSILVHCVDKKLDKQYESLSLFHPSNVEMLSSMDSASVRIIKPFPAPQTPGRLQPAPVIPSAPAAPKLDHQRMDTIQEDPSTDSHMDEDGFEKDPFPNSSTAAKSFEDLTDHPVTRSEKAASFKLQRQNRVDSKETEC
Series [6] is described as follows: Cytotoxicity HEK293. It counts as cell-based. The conditions noted are these: human. The protocol:
as §2

For series [7], the target named is LasB (Pseudomonas aeruginosa, UniProt Q02RJ6). Briefly: biochemical. Set-up: species or system P. aeruginosa.
Sequence of LasB (Q02RJ6 198-498): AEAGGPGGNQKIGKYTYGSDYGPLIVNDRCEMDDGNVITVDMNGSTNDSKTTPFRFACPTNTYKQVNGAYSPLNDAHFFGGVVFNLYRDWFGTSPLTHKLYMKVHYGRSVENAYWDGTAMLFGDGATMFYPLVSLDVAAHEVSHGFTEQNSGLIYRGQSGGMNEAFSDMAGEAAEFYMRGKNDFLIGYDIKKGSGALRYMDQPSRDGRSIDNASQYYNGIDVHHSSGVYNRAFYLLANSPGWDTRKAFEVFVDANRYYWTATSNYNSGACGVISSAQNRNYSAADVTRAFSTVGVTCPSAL
Series [8] has as its system P. aeruginosa PA14. Briefly: PA14 inhibition (MIC, antibacterial effect). The series is classed as cell-based. The conditions noted are these: Pseudomonas aeruginosa, PA14; read-out: MIC PA14. The protocol: as §2
Series [9] can be described thus: Cytotoxicity A549. It counts as cell-based. The following applies: human. On the procedure: as §2
Series [10] deals with T3, HDAC-8 (Homo sapiens, UniProt Q9BY41).
T3 sequence (Q9BY41 1-377): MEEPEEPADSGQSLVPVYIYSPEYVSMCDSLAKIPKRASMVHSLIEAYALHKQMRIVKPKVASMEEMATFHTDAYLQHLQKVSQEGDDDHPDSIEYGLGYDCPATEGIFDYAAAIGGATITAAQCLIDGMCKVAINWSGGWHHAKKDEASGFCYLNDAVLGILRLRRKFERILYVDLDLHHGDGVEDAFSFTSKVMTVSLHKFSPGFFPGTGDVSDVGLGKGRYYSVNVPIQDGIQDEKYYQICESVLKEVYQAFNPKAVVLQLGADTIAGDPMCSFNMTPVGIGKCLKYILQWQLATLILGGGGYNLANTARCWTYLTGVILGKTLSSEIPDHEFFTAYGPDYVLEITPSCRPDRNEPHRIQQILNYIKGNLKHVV
Briefly: Selectivity against human off-targets: HDAC-8. The following applies: read-out: IC50 HDAC-8. The series is classed as biochemical.
Excerpt: as §1

In series [11] the target is MMP-3 (Homo sapiens, UniProt P08254). Briefly: Selectivity against human off-targets: MMP-3. The series is classed as biochemical. The conditions noted are these: at 100 μM; read-out: Inhibition [%] MMP-3.
Sequence of MMP-3 (P08254 100-477): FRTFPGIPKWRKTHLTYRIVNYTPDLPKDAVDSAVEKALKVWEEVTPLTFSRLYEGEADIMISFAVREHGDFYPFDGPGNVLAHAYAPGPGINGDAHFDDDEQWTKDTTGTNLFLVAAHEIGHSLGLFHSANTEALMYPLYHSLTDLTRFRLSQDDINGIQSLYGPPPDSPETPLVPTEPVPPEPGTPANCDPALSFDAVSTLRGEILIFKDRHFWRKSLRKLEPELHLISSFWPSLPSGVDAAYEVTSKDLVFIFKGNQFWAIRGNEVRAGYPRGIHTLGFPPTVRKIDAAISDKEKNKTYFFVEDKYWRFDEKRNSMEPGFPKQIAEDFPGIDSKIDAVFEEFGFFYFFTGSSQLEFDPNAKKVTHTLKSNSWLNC
Excerpt: as §1

Series [12] addresses MMP-8 (Homo sapiens, UniProt P22894). Briefly: Selectivity against human off-targets: MMP-8. The series is classed as biochemical. The conditions noted are these: at 100 μM; read-out: Inhibition [%] MMP-8.
Excerpt: as §1

Sequence of HDAC-3 (O15379 whole entry): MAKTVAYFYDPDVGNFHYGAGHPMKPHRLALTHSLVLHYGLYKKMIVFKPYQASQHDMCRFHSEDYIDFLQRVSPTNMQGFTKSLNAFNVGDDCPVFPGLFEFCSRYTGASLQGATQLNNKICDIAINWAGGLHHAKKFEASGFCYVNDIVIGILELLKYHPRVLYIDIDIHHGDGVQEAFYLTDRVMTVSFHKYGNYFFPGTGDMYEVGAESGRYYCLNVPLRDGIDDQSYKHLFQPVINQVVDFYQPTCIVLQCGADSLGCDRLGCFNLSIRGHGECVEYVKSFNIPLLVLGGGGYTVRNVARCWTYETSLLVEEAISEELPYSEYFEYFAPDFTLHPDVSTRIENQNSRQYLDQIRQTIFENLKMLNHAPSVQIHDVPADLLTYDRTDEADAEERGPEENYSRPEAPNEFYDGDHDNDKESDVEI
Sequence of HDAC-3 (Q9Y618 395-489 partner limits assumed): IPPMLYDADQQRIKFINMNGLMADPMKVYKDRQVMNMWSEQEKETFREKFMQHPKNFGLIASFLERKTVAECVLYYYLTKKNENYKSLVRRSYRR
Sequence of MMP-8 (P22894 101-467): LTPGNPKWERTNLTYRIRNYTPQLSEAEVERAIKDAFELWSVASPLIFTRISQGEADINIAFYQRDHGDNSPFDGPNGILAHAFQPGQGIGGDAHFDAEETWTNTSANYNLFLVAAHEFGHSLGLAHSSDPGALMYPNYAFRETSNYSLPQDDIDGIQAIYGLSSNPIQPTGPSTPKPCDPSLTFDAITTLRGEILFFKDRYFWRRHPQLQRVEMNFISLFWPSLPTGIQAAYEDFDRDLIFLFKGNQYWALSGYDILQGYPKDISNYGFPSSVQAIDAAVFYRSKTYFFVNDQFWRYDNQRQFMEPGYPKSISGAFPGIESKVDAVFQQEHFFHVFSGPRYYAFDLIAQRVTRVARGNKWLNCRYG

For `Cc1ccc(NC(=O)C(CC(C)C)C(=O)NO)cc1` (stereo not drawn) [Example 173, N^1-hydroxy-2-isobutyl-N^3-(p-tolyl)malonamide], the inhibition at 100 µM in series [1] stood at 29 ± 3%; in series [2], 26 ± 2%; in [11] it was 16 ± 7%. Moreover, the IC50 was more than 100 µM in series [3] (HepG2); more than 100 µM in series [4]; 16 ± 2 µM in [5]; more than 100 µM in series [6] (HEK293); 0.014 ± 0.001 µM in series [7] (IC50 against LasB); more than 100 µM in series [9] (A549). The IC50 in [10] is more than 100 µM. In [8], the MIC is more than 100 µM.
With `CC(C)CC(C(=O)N[C@H](c1nc2cc(Oc3ccccc3)ccc2[nH]1)C(C)C)P(=O)(O)O` (mixture of isomers) [Example 172, (4-Methyl-1-(((S)-2-methyl-1-(5-phenoxy-1H-benzo[d]imidazol-2-yl)propyl)amino)-1-oxopentan-2-yl)phosphonic acid], the inhibition at 100 µM in [1] was 18 ± 4%; in series [2] it was 12 ± 2%; in [5] (at 100 μM) it was less than 10%; in series [11], 18 ± 5%. Besides, the half-maximal inhibitory concentration (IC50) is more than 100 µM in series [3] (HepG2); more than 100 µM in series [6] (HEK293); 12 ± 1 µM in [7] (IC50 against LasB (Table 16), heteropentacycles and benzannulated heteropentacycles); more than 100 µM in series [9] (A549). Moreover, in series [8], the minimum inhibitory concentration (MIC) was more than 100 µM.
For the compound `O=C(Nc1ccc(O)cc1)C(S)Cc1ccccc1` (stereo not drawn) [Example 5], the IC50 in series [3] (HepG2) is more than 100 µM; in series [5] it was 2.3 ± 1.4 µM; in series [6] (HEK293), more than 100 µM; in series [7] (IC50 against LasB) it was 0.59 ± 0.04 µM; in series [9] (A549) it was more than 100 µM. For the same compound, in series [12], the inhibition at 100 µM was 19 ± 4%.
Take `CC(C)CC(C(=O)N[C@H](C(=O)Nc1ccc(Cl)c(Cl)c1)C(C)C)P(=O)(O)O` (mixture of isomers) [Example 152, (1-(((S)-1-((3,4-Dichlorophenyl)amino)-3-methyl-1-oxobutan-2-yl)amino)-4-methyl-1-oxopentan-2-yl)phosphonic acid]: the inhibition at 100 µM was 13 ± 1% in [1], 7 ± 9% in [2] and less than 10% in [11]. The IC50 is more than 100 µM in [3] (HepG2); more than 100 µM in series [5]; more than 100 µM in [6] (HEK293); 0.0051 ± 0.0002 µM in [7] (IC50 against LasB); more than 100 µM in series [9] (A549). For the same compound, the MIC in series [8] was more than 100 µM.
As to `Cc1ccc(NC(=O)C(CC(C)C)n2nccn2)cc1` (stereo not drawn) [Example 177, 4-Methyl-N-(p-tolyl)-2-(2H-1,2,3-triazol-2-yl)pentanamide], the inhibition at 100 µM in series [1] came out at 7 ± 4%. Moreover, the IC50 in series [3] (HepG2) is more than 100 µM; in [4], more than 100 µM; in [5], more than 100 µM; in [6] (HEK293), more than 100 µM; in [7] (IC50 against LasB), 5.3 ± 0.2 µM; in [9] (A549), more than 100 µM. Besides, in series [10], the IC50 is more than 100 µM. Moreover, the minimal inhibitory concentration (MIC) in series [8] is more than 100 µM.
Turning to `CC(C)CC(C(=O)Nc1ccc(NS(=O)(=O)c2ccc(Cl)c(Cl)c2)cc1)P(=O)(O)O` (stereo not drawn) [Example 108, (1-((4-((3,4-Dichlorophenyl)sulfonamido)phenyl)amino)-4-methyl-1-oxopentan-2-yl)phosphonic acid], the inhibition at 100 µM was 12 ± 1% in series [1], less than 10% in series [2] and less than 10% in series [11]. The IC50 in series [3] (HepG2 cells), in series [6] (HEK293 cells) and in [9] (A549 cells) was more than 100 µM in each case. Also, the MIC in [8] was more than 100 µM.
For `Cc1ccc(NC(=O)C(CC(C)C)n2ccnn2)cc1` (stereo not drawn) [Example 174, 4-Methyl-N-(p-tolyl)-2-(1H-1,2,3-triazol-1-yl)pentanamide], the IC50 in series [3] (HepG2) was more than 100 µM; in series [4], more than 100 µM; in series [5] it was more than 100 µM; in [6] (HEK293) it was more than 100 µM; in series [7] (IC50 against LasB), 2.8 ± 0.1 µM; in series [9] (A549), more than 100 µM. In addition, the IC50 in series [10] was more than 100 µM. Besides, the MIC in [8] was more than 100 µM. Moreover, the inhibition at 100 µM in series [11] was -3 ± 17%.

As a reminder, the inhibition is the relative decrease from the control value, in per cent. One may read the IC50 as the concentration that inhibits the measured activity by half. One may read the MIC as the least concentration at which growth counts as inhibited.
